pIC50: −log10 of the molar value.
Columns and labels:
KRAS^G12C = KRAS^G12C (Homo sapiens, UniProt P01116, C118A/G12C); assay: Coupled Nucleotide Exchange Assay; assay type: biochemical; conditions: GDP-bound KRAS (aa 1-169) G12C/C118A; 2 h compound pre-incubation; SOS-mediated exchange, 30 min; cRAF binding (AlphaLISA)
Description: The KRAS^G12C coupled nucleotide exchange assay allows for the screening and profiling of KRAS^G12C antagonists/inhibitors by monitoring the binding of an effector protein (e.g., a Ras binding domain of Raf1, RBD-cRaf) to KRAS^G12C. Purified GDP-bound KRAS protein (aa 1-169), containing both G12C and C118A amino acid substitutions and an N-terminal His-tag, was pre-incubated in assay buffer (25 mM HEPES pH 7.4, 10 mM MgCl2, 0.01% Triton X-100, either with or without 0.1% BSA) with serially diluted compound for 2 h. For all subsequent steps, BSA was omitted and DTT was added to the reaction buffer at a final concentration of 1 mM. Following compound pre-incubation, purified SOS protein (aa 564-1049) and GTP (Roche 10106399001) were added to the assay wells and incubated for an additional 30 min. To determine the extent of inhibition of SOS-mediated nucleotide exchange, purified GST-tagged cRAF (aa 1-149), nickel chelate AlphaLISA acceptor beads (PerkinElmer AL108R), and AlphaScreen glutathione donor beads (PerkinElmer 6765302) were added to the assay wells and incubated for 5-30 min. The assay plates were then read on a plate reader measuring luminescence signal. Signal intensity of compound-containing wells were normalized to DMSO control, and data were analyzed using a 4-parameter logistic model to calculate IC50 values.

MIA PaCa-2 cells = assay: Cell Viability Assay, MIA PaCa-2; assay type: cell-based; conditions: human pancreatic carcinoma, CellTiter-Glo
Description: (§1) MIA PaCa-2 (human pancreatic carcinoma; ATCC CRL-1420) or A549 (human lung carcinoma; ATCC CCL-185) cells were cultured in RPMI 1640 medium containing 10% fetal bovine serum and 1×penicillin/streptomycin/L-glutamine. Cells were seeded in 384-well plates at a density of 1.67E+04 cells/mL and incubated at 37° C., 5% CO2, overnight. Serially-diluted compound or DMSO was added to the cells, and plates were incubated at 37° C., 5% CO2 for 72 h. Cell viability was measured using a CellTiter-Glo® Luminescent Cell Viability Assay kit (Promega) according to the manufacturer's protocol. The luminescence signal of treated samples was normalized to DMSO control, and data were analyzed using a 4-parameter logistic model to calculate IC50 values.
(§2) The following data (Table 3) categorizes the IC50 of each compound for inhibiting enzymatic activity of KRAS^G12C in the indicated cells.

A549 cells = assay: Cell Viability Assay, A549; assay type: cell-based; conditions: human lung carcinoma, 72 h, CellTiter-Glo
Description: as §1, §2

KRAS^G12C, sequence (P01116 1-169 isoform P01116-2 G12C/C118A): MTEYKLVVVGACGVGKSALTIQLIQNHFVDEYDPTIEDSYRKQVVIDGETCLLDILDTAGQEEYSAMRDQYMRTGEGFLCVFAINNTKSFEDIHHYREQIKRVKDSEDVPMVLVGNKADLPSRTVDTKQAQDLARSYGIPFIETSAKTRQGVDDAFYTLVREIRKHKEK

`C=CC(=O)N1CCN([C@@H]2CN(c3cc(N4CCC5(OCC=C5C)C(C)C4)nc(C(F)(F)F)n3)[C@@H]2C)CC1` (relative stereo) [Compound 3-060, 1-(4-((2R,3R)-1-(6-((5R,6S)-4,6-Dimethyl-1-oxa-8-azaspiro[4.5]dec-3-en-8-yl)-2-(trifluoromethyl)pyrimidin-4-yl)-2-methylazetidin-3-yl)piperazin-1-yl) prop-2-en-1-one] was tested, and the pIC50 (KRAS^G12C) was 6.39, the pIC50 (MIA PaCa-2 cells; Homo sapiens, MIA PaCa-2, 72 h) was 5.96 and the pIC50 (A549 cells; A549) was < 5.30.
With `C=CC(=O)N1CCN(C2CN(c3cc(N4CCC5(CC4)OC(C)C=C5C)nc(C(F)(F)F)c3C#N)C2)CC1` (single isomer, unassigned) [Compound 3-054-1] the pIC50 (KRAS^G12C) was 6.89, the pIC50 (MIA PaCa-2 cells; 72 h) was 6.22 and the pIC50 (A549 cells; A549) was < 5.30.
In the case of `C=CC(=O)N1CCN(C2CN(c3cc(N4CCC5(CC4)OC(C)C=C5C)nc(C(F)(F)F)c3C#N)C2)CC1` (single isomer, unassigned) [Compound 3-054-2], the pIC50 (KRAS^G12C) was 6.42, the pIC50 (MIA PaCa-2 cells; 72 h) was 5.83 and the pIC50 (A549 cells) was < 5.30.
With `C=CC(=O)N1CCN(C2CN(c3cc(N4CCC5(CC4)O[C@H](C)C=C5Cl)nc(C(F)(F)F)c3C#N)C2)CC1` (single isomer, unassigned) [Compound 3-067-1] the pIC50 (KRAS^G12C) was 6.28, the pIC50 (MIA PaCa-2 cells; Homo sapiens, MIA PaCa-2, 72 h) was 5.88 and the pIC50 (A549 cells; A549) was < 5.30.
For `C=CC(=O)N1CCN([C@@H]2CN(c3cc(N4CC[C@]5(C[C@H]4C)OC[C@@H](CO)n4ncc(C)c45)nc(C(F)(F)F)n3)[C@@H]2C)CC1` (single isomer, unassigned) [Compound 3-087-1], the pIC50 (KRAS^G12C) was 7.32, the pIC50 (MIA PaCa-2 cells; Homo sapiens, MIA PaCa-2, 72 h) was 7.11 and the pIC50 (A549 cells; A549) was < 5.30.
With `C=CC(=O)N1CCN([C@@H]2CN(c3cc(N4CC[C@]5(C[C@H]4C)OC[C@H](CO)n4ncc(C)c45)nc(C(F)(F)F)n3)[C@@H]2C)CC1` (single isomer, unassigned) [Compound 3-087-2] the pIC50 (KRAS^G12C) was 7.06, the pIC50 (MIA PaCa-2 cells; Homo sapiens, MIA PaCa-2, 72 h) was 6.85 and the pIC50 (A549 cells; A549) was < 5.30.
In the case of `C=CC(=O)N1CCN([C@@H]2CN(c3cc(N4CC[C@]5(C[C@H]4C)OC[C@@H](CO)n4ncc(C)c45)nc(C(F)F)n3)[C@@H]2C)CC1` (single isomer, unassigned) [Compound 3-088-1], the pIC50 (KRAS^G12C) was 6.97, the pIC50 (MIA PaCa-2 cells; Homo sapiens, MIA PaCa-2, 72 h) was 6.72 and the pIC50 (A549 cells; A549) was < 5.30.
In the case of `C=CC(=O)N1CCN([C@@H]2CN(c3cc(N4CC[C@]5(C[C@H]4C)OC[C@H](CO)n4ncc(C)c45)nc(C(F)F)n3)[C@@H]2C)CC1` (single isomer, unassigned) [Compound 3-088-2], the pIC50 (KRAS^G12C) was 7.14, the pIC50 (MIA PaCa-2 cells; Homo sapiens, MIA PaCa-2, 72 h) was 6.89 and the pIC50 (A549 cells; A549) was < 5.30.
`C=CC(=O)N1CCN([C@@H]2CN(c3cc(N4CC[C@]5(C[C@H]4C)OC[C@H](COC)n4ncc(C)c45)nc(C(F)(F)F)n3)[C@@H]2C)CC1` (single isomer, unassigned) [Compound 3-089-1] was tested, and the pIC50 (KRAS^G12C) was 7.38, the pIC50 (MIA PaCa-2 cells; Homo sapiens, MIA PaCa-2, 72 h) was 6.99 and the pIC50 (A549 cells; A549) was < 5.30.
With `C=CC(=O)N1CCN([C@@H]2CN(c3cc(N4CC[C@]5(C[C@H]4C)OC[C@@H](COC)n4ncc(C)c45)nc(C(F)F)n3)[C@@H]2C)CC1` (single isomer, unassigned) [Compound 3-090-1] the pIC50 (KRAS^G12C) was 6.84, the pIC50 (MIA PaCa-2 cells; Homo sapiens, MIA PaCa-2, 72 h) was 6.71 and the pIC50 (A549 cells; A549) was < 5.30.
With `C=CC(=O)N1CCN([C@@H]2CN(c3cc(N4CC[C@]5(C[C@H]4C)OCCc4ncsc45)nc(C(F)(F)F)n3)[C@@H]2C)CC1` (single isomer, unassigned) [Compound 3-091-1] the pIC50 (KRAS^G12C) was 7.27, the pIC50 (MIA PaCa-2 cells; Homo sapiens, MIA PaCa-2, 72 h) was 6.48 and the pIC50 (A549 cells; A549) was < 5.30.
`C=CC(=O)N1CCN([C@@H]2CN(c3cc(N4CCC5(CC4)OCCC=C5C)nc(C(F)(F)F)n3)[C@@H]2C)CC1` [Compound 3-008, 1-(4-((2R.3R)-2-methyl-1-(6-(5-methyl-1-oxa-9-azaspiro[5.5]undec-4-en-9-yl)-2-(trifluorometh-yl)pyrimidin-4-yl)azetidin-3-yl)-piperazin-1-yl)prop-2-en-1-one] was tested, and the pIC50 (KRAS^G12C) was 6.56 and the pIC50 (MIA PaCa-2 cells; Homo sapiens, MIA PaCa-2, 72 h) was 6.20.
For `C=CC(=O)N1CCN(C2CN(c3cc(N4CCC5(CC4)OCCc4ncsc45)nc(C(F)F)c3C)C2)CC1` [Compound 3-069, 1-(4-(1-(2-(Difluoromethyl)-6-(6′,7′-dihydrospiro[piperidine-4,4′-pyrano[4,3-d]thiazol]-1-yl)-3-methylpyridin-4-yl)azetidin-3-yl)piperazin-1-yl) prop-2-en-1-one], the pIC50 (KRAS^G12C) was 6.08.
For `C=CC(=O)N1CCN(C2CN(c3cc(N4CCC5(C=CCO5)CC4)nc(C(F)F)c3C)C2)CC1` [Compound 3-070, 1-(4-(1-(2-(difluoromethyl)-3-methyl-6-(1-oxa-8-azaspiro[4.5]dec-3-en-8-yl)pyridin-4-yl)azetidin-3-yl)piperazin-1-yl)prop-2-en-1-one], the pIC50 (KRAS^G12C) was 5.85.
Work on `C=CC(=O)N1CCN(C2CN(c3cc(N4C5CCC4CC4(CCCO4)C5)nc(C(F)F)c3C)C2)CC1` (stereo not drawn) [Compound 3-071, 1-(4-(1-(2-(difluoromethyl)-6-(dihydro-3′H-8-azaspiro[bicyclo[3.2.1]octane-3,2′-furan]-8-yl)-3-methylpyridin-4-yl)azetidin-3-yl)piperazin-1-yl)prop-2-en-1-one] yielded a pIC50 (KRAS^G12C) of 5.52.
Work on `C=CC(=O)N1CCN(C2CN(c3cc(N4CCC5(C=CCOC5)CC4)nc(C(F)F)c3C)C2)CC1` [Compound 3-072, 1-(4-(1-(2-(difluoromethyl)-3-methyl-6-(2-oxa-9-azaspiro[5.5]undec-4-en-9-yl)pyridin-4-yl)azetidin-3-yl)piperazin-1-yl)prop-2-en-1-one] yielded a pIC50 (KRAS^G12C) of 5.31.
`C=CC(=O)N1CCN([C@@H]2CN(c3cc(N4CCC5(C=CCC5)CC4)nc(C(F)(F)F)n3)[C@@H]2C)CC1` [Compound 3-073, 1-(4-((2R,3R)-1-(6-(8-Azaspiro[4.5]dec-1-en-8-yl)-2-(trifluoromethyl)pyrimidin-4-yl)-2-methylazetidin-3-yl)piperazin-1-yl) prop-2-en-1-one] showed a pIC50 (KRAS^G12C) of 5.37.
`C=CC(=O)N1CCN([C@@H]2CN(c3cc(N4CCC5(CC4)OCc4nccc(C)c45)nc(C(F)F)n3)[C@@H]2C)CC1` [Compound 3-080] was tested, and the pIC50 (KRAS^G12C) was 6.45.
For `C=CC(=O)N1CCN([C@@H]2CN(c3cc(N4CCC5(CC4)OCCc4nccc(C)c45)nc(C(F)(F)F)n3)[C@@H]2C)CC1` [Compound 3-085, 1-(4-((2R,3R)-2-methyl-1-(6-(4′-methyl-7′,8′-dihydrospiro[piperidine-4,5′-pyrano[4,3-b]pyridin]-1-yl)-2-(trifluoromethyl)pyrimidin-4-yl)azetidin-3-yl)piperazin-1-yl)prop-2-en-1-one], the pIC50 (MIA PaCa-2 cells; 72 h) was 6.74 and the pIC50 (A549 cells) was < 5.30.
With `C=CC(=O)N1CCN([C@@H]2CN(c3cc(N4CCC5(CC4)COc4nccc(C)c45)nc(C(F)F)n3)[C@@H]2C)CC1` [Compound 3-086, 1-(4-((2R,3R)-1-(2-(difluoromethyl)-6-(4-methyl-2H-spiro[furo[2.3-b]pyridine-3,4′-piperidin]-1′-yl)pyrimidin-4-yl)-2-methylazetidin-3-yl)piperazin-1-yl)prop-2-en-1-one] the pIC50 (KRAS^G12C) was 5.54.
Work on `C=CC(=O)N1CCN([C@@H]2CN(c3cc(N4CCC5(CC4)COc4nccc(C)c45)nc(C(F)(F)F)n3)[C@@H]2C)CC1` [Compound 3-092, 1-(4-((2R,3R)-2-methyl-1-(6-(4-methyl-1′H-spiro[furo[2,3-b]pyridine-3,4′-piperidin]-1′-yl)-2-(trifluoromethyl)-4-pyrimidinyl)-3-azetidinyl)-1-piperazinyl)-2-propen-1-one] yielded a pIC50 (KRAS^G12C) of 5.62.
